Earlier results, collected in patent US20260014110A1, “RETINOIC ACID-ALCOHOL AMINE COMPLEX, PREPARATION METHOD AND APPLICATION THEREOF” (NANJING INDETEK LABORATORY CO., LTD., priority 2022, published 2026).
In brackets after ≈: the same amount, converted by molar mass. Like-named read-outs stand apart in the source and are kept apart here.

solubility in water (Chinese Pharmacopoeia 2020, volume II): extremely difficult to dissolve in water | solubility in water (literature (Ascenso et al. 2011)): 1.06 µM (≈ 0.318 µg/mL)
Compound: CC1=C(/C=C/C(C)=C/C=C/C(C)=C/C(=O)O)C(C)(C)CCC1 [retinoic acid]
